Results published in patent US20200079793A1, “COMPOUNDS AND METHODS FOR MODULATING ADENOSINE A2B RECEPTOR AND ADENOSINE A2A RECEPTOR” (CORVUS PHARMACEUTICALS, INC., priority 2018, published 2020).

How the values were obtained:
Adenosine A2B Receptor = target: T1, Adenosine A2B Receptor (Homo sapiens, UniProt P29275); assay: Activity assay of adenosine receptor modulators, Adenosine A2B Receptor (Table 1); assay type: biochemical; details: cAMP; read-out: A2BR cAMP IC50
T1 sequence (P29275 1-332): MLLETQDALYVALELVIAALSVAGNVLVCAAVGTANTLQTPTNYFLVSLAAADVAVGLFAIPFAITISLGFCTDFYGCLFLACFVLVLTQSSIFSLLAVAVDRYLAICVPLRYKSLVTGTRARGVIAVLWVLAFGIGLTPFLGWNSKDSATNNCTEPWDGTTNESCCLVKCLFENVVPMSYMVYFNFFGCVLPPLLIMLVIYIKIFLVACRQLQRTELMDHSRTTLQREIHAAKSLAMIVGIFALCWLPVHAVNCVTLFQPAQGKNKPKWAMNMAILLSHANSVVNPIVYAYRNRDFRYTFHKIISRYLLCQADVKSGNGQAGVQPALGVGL
Experimental: (§1) Compounds (e.g., adenosine receptor modulators) were tested for its biological activity. The assay results in Table 1 indicate (+ means >1 μM; ++ means 100 nM to 1 μM; +++ means <100 nM).

Adenosine A2A Receptor = Adenosine A2A Receptor (Homo sapiens, UniProt P29274); assay: Activity assay of adenosine receptor modulators, Adenosine A2A Receptor (Table 1); assay type: biochemical; details: cAMP; read-out: A2AR cAMP IC50
Experimental: as §1

A1R = target: T2, A1R (Homo sapiens, UniProt P30542); assay: Activity assay of adenosine receptor modulators, A1R cAMP (Table 1); assay type: cell-based
T2 sequence (P30542 1-326): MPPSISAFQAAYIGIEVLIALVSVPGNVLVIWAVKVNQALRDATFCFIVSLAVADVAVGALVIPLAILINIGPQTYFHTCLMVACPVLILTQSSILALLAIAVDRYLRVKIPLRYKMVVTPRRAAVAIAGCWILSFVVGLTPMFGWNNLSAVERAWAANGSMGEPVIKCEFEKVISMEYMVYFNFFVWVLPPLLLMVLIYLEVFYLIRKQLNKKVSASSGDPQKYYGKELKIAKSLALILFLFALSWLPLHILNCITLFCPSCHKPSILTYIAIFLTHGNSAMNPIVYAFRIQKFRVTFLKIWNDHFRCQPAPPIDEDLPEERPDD
Experimental: as §1

A3R = target: T3, A3R (Homo sapiens, UniProt P0DMS8); assay: Activity assay of adenosine receptor modulators, A3R cAMP (Table 1); assay type: cell-based
T3 sequence (P0DMS8 1-318): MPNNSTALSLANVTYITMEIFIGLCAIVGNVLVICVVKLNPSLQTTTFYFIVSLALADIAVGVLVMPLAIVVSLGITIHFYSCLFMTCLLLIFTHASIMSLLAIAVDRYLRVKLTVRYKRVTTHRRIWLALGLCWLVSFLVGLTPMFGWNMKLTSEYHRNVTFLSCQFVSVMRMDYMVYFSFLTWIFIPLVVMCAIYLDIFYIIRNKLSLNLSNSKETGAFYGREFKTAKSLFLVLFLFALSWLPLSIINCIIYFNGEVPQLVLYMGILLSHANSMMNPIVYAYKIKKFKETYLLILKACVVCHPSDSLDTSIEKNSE
Experimental: as §1

Chain of Adenosine A2A Receptor (P29274 whole entry): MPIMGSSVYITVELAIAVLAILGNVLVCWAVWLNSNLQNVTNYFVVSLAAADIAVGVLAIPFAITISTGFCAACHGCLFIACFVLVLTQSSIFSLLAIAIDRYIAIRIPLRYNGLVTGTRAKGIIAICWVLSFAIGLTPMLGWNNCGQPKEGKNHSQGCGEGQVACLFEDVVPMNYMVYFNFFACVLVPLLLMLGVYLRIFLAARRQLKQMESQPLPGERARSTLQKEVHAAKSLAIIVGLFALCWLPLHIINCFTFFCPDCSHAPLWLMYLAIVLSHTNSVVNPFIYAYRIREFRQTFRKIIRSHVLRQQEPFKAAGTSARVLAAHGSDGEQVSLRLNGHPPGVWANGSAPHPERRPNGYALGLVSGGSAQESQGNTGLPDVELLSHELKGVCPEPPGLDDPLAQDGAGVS

Compound | IC50 (Adenosine A2B Receptor) [nM] | IC50 (Adenosine A2A Receptor) [nM] | IC50 (A1R) [nM] | IC50 (A3R) [nM]
Cc1nc2nc(N[C@@H](C)c3cncc(F)c3)nc(C(=O)N3CC(NC(=O)c4ccccc4F)C3)c2s1 [Example 59, (S)-2-Fluoro-N-(1-(5-((1-(5-fluoropyridin-3-yl)ethyl)amino)-2-methylthiazolo[4,5-d]pyrimidine-7-carbonyl)azetidin-3-yl)benzamide] | < 100 | < 100 | > 1000 | 100 to 1000
Cc1nc2nc(N[C@@H](C)c3cccnc3)nc(C(=O)N3CC(NC(=O)c4ccoc4)C3)c2s1 [Example 80, N-[1-[2-Methyl-5-[[(S)-1-(3-pyridyl)ethyl]amino]thiazolo[4,5-d]pyrimidine-7-carbonyl]azetidin-3-yl]furan-3-carboxamide] | 100 to 1000 | < 100 | > 1000 | > 1000
CCNC(=O)C1CCN(C(=O)c2nc(N[C@@H](C)c3cncc(F)c3)nc3nc(C)sc23)C1 (stereo partly drawn) [Example 38, N-ethyl-1-(5-(((S)-1-(5-fluoropyridin-3-yl)ethyl)amino)-2-methylthiazolo[4,5-d]pyrimidine-7-carbonyl)pyrrolidine-3-carboxamide] | < 100 | > 1000 | > 1000 | > 1000
Cc1nc2nc(N[C@@H](C)c3cncc(F)c3)nc(C(=O)NCC3CCOCC3)c2s1 [Example 11, (S)-5-((1-(5-Fluoropyridin-3-yl)ethyl)amino)-2-methyl-N-((tetrahydro-2H-pyran-4-yl)methyl)thiazolo[4,5-d]pyrimidine-7-carboxamide] | < 100 | 100 to 1000 | 100 to 1000 | > 1000
Cc1nc2nc(N[C@@H](C)c3cccnc3)nc(C(=O)N3CC[C@H](O)C3)c2s1 [Example 18, ((S)-3-Hydroxypyrrolidin-1-yl)(2-methyl-5-(((S)-1-(pyridin-3-yl)ethyl)amino)thiazolo[4,5-d]pyrimidin-7-yl)methanone] | < 100 | > 1000 | > 1000 | > 1000
Cc1nc2nc(N[C@@H](C)c3cccnc3)nc(C(=O)N3CC(NC(=O)C4(C)CC4)C3)c2s1 [Example 76, 1-Methyl-N-[1-[2-methyl-5-[[(S)-1-(3-pyridyl)ethyl]amino]thiazolo[4,5-d]pyrimidine-7-carbonyl]azetidin-3-yl]cyclopropanecarboxamide] | 100 to 1000 | < 100 | > 1000 | 100 to 1000
CC(=O)NC1CN(C(=O)c2nc(N[C@@H](C)c3cncc(F)c3)nc3nc(C)sc23)C1 [Example 28, (S)—N-(1-(5-((1-(5-Fluoropyridin-3-yl)ethyl)amino)-2-methylthiazolo[4,5-d]pyrimidine-7-carbonyl)azetidin-3-yl)acetamide] | < 100 | 100 to 1000 | > 1000 | > 1000
Cc1nc2nc(N[C@@H](C)c3cccnc3)nc(C(=O)NC[C@H](C)O)c2s1 [Example 15, N—((S)-2-Hydroxypropyl)-2-methyl-5-(((S)-1-(pyridin-3-yl)ethyl)amino)thiazolo[4,5-d]pyrimidine-7-carboxamide] | < 100 | > 1000 | > 1000 | > 1000
Cc1nc2nc(N[C@@H](C)c3cncc(F)c3)nc(C(=O)N3CC(NC(=O)C4CC(F)(F)C4)C3)c2s1 [Example 69, (S)-3,3-Difluoro-N-(1-(5-((1-(5-fluoropyridin-3-yl)ethyl)amino)-2-methylthiazolo[4,5-d]pyrimidine-7-carbonyl)azetidin-3-yl)cyclobutane-1-carboxamide] | 100 to 1000 | < 100 | > 1000 | 100 to 1000
Cc1nc2nc(N[C@@H](C)c3cncc(F)c3)nc(C(=O)NC[C@@H]3CCOC3)c2s1 [Example 13, 5-(((S)-1-(5-Fluoropyridin-3-yl)ethyl)amino)-2-methyl-N—(((S)-tetrahydrofuran-3-yl)methyl)thiazolo[4,5-d]pyrimidine-7-carboxamide] | < 100 | 100 to 1000 | 100 to 1000 | 100 to 1000
CC(=O)NC[C@@H]1CCN(C(=O)c2nc(N[C@@H](C)c3cncc(F)c3)nc3nc(C)sc23)C1 [Example 52, N—(((S)-1-(5-(((S)-1-(5-Fluoropyridin-3-yl)ethyl)amino)-2-methylthiazolo[4,5-d]pyrimidine-7-carbonyl)pyrrolidin-3-yl)methyl)acetamide] | < 100 | > 1000 | > 1000 | > 1000
Cc1nc2nc(N[C@@H](C)c3cncc(F)c3)nc(C(=O)N3CC[C@@H](O)C3)c2s1 [Example 7, (5-(((S)-1-(5-Fluoropyridin-3-yl)ethyl)amino)-2-methylthiazolo[4,5-d]pyrimidin-7-yl)((R)-3-hydroxypyrrolidin-1-yl)methanone] | < 100 | 100 to 1000 | > 1000 | > 1000
Cc1nc2nc(N[C@@H](C)c3cncc(F)c3)nc(C(=O)N3CC(NC(=O)NC4CCCC4)C3)c2s1 [Example 60, (S)-1-Cyclopentyl-3-(1-(5-((1-(5-fluoropyridin-3-yl)ethyl)amino)-2-methylthiazolo[4,5-d]pyrimidine-7-carbonyl)azetidin-3-yl)urea] | < 100 | < 100 | > 1000 | 100 to 1000
Cc1nc2nc(N[C@@H](C)c3cncc(F)c3)nc(C(=O)NC[C@H]3CCOC3)c2s1 [Example 14, 5-(((S)-1-(5-Fluoropyridin-3-yl)ethyl)amino)-2-methyl-N—(((R)-tetrahydrofuran-3-yl)methyl)thiazolo[4,5-d]pyrimidine-7-carboxamide] | < 100 | > 1000 | 100 to 1000 | > 1000
Cc1nc2nc(N[C@@H](C)c3cncc(F)c3)nc(C(=O)NCCC3CCNCC3)c2s1 [Example 32, (S)-5-((1-(5-Fluoropyridin-3-yl)ethyl)amino)-2-methyl-N-(2-(piperidin-4-yl)ethyl)thiazolo[4,5-d]pyrimidine-7-carboxamide] | < 100 | > 1000 | > 1000 | > 1000
Cc1nc2nc(N[C@@H](C)c3ccccn3)nc(C(=O)N3CC(NC(=O)NC(C)(C)C)C3)c2s1 [Example 63, (S)-1-(tert-Butyl)-3-(1-(2-methyl-5-((1-(pyridin-2-yl)ethyl)amino)thiazolo[4,5-d]pyrimidine-7-carbonyl)azetidin-3-yl)urea] | 100 to 1000 | < 100 | > 1000 | 100 to 1000
Cc1nc2nc(N[C@@H](C)c3cccnc3)nc(C(=O)N3CC(NC(=O)C45CC6CC(CC(C6)C4)C5)C3)c2s1 [Example 77, N-[1-[2-Methyl-5-[[(S)-1-(3-pyridyl)ethyl]amino]thiazolo[4,5-d]pyrimidine-7-carbonyl]azetidin-3-yl]adamantane-1-carboxamide] | < 100 | < 100 | > 1000 | 100 to 1000
Cc1nc2nc(N[C@@H](C)c3ccccn3)nc(C(=O)N3CC(NC(=O)Nc4ccccc4)C3)c2s1 [Example 78, 1-[1-[2-Methyl-5-[[(S)-1-(2-pyridyl)ethyl]amino]thiazolo[4,5-d]pyrimidine-7-carbonyl]azetidin-3-yl]-3-phenyl-urea] | 100 to 1000 | < 100 | > 1000 | > 1000
